According to patent US11180504B2 (ORCHID PHARMA LTD., priority 2016, dated 2021):
Converted amounts (≈) assume the structure as drawn.

Tests used:
[1] = system: carbapenemase producing K. pneumoniae; experiment: MIC by broth micro-dilution (CLSI), carbapenemase producing K. pneumoniae; assay type: cell-based, Klebsiella pneumoniae; settings: Klebsiella pneumoniae, ATCCBAA1705, KPC-2 K. pneumoniae ATCC BAA-1705; read-out: MIC
[2] = system: methicillin-sensitive Staphylococcus aureus; experiment: MIC by broth micro-dilution (CLSI), methicillin-sensitive S. aureus; assay type: cell-based; settings: Staphylococcus aureus, ATCC 29213 / MSSA, MSSA S. aureus ATCC29213; read-out: MIC
[3] = system: carbapenem sensitive Pseudomonas aeruginosa; experiment: MIC by broth micro-dilution (CLSI), carbapenem sensitive P. aeruginosa; assay type: cell-based; settings: Pseudomonas aeruginosa, ATCC27853, Meropenem susceptible P. aeruginosa ATCC27853; read-out: MIC
[4] = system: carbapenem sensitive Escherichia coli; experiment: MIC by broth micro-dilution (CLSI), carbapenem sensitive E. coli; assay type: cell-based; settings: Escherichia coli, ATCC25922, ESBL −ve E. coli ATCC25922; read-out: MIC
[5] = system: extended spectrum β lactamase (ESBL) SHV18 producing Klebsiella pneumoniae; experiment: MIC by broth micro-dilution (CLSI), ESBL SHV18 producing K. pneumoniae; assay type: cell-based; settings: Klebsiella pneumoniae, ATCC700603, 22 h, ESBL +ve (SHV-18) K. pneumoniae ATCC700603; read-out: MIC

SMILES	MIC [1]	MIC [2]	MIC [3]	MIC [4]	MIC [5]
C[C@@H](NC(=O)C[S+]([O-])C(F)F)[C@H]1C(=O)N2C(C(=O)O)=C(S[C@@H]3CN[C@H](C(=O)N(C)C)C3)[C@H](C)[C@H]12 (mixture of isomers) [Example 82]	8 µg/mL	8 µg/mL	128 µg/mL	1 µg/mL	2 µg/mL
CC(F)C(=O)N[C@H](C)[C@H]1C(=O)N2C(C(=O)O)=C(S[C@@H]3CN[C@H](C(=O)N(C)C)C3)[C@H](C)[C@H]12 (mixture of isomers) [Example 84]	16 µg/mL	4 µg/mL	128 µg/mL	1 µg/mL	4 µg/mL
C[C@@H](NS(C)(=O)=O)[C@H]1C(=O)N2C(C(=O)O)=C(S[C@@H]3CN[C@H](C(=O)N4CCC(N)C4)C3)[C@H](C)[C@H]12 (stereo in doubt) [Example 362, (4R,5S,6S)-3-((3S,5S)-5-((R)-3-aminopyrrolidine-1-carbonyl)pyrrolidin-3-ylthio)-4-methyl-6-((R)-1-(methylsulfonamido)ethyl)-7-oxo-1-azabicyclo[3.2.0]hept-2-ene-2-carboxylic acid]	4 µg/mL (≈ 7.97 µM)	8 µg/mL (≈ 15.9 µM)	4 µg/mL (≈ 7.97 µM)	0.25 µg/mL (≈ 0.498 µM)	4 µg/mL (≈ 7.97 µM)
C[C@@H](NC(=O)Cc1cccs1)[C@H]1C(=O)N2C(C(=O)O)=C(S[C@@H]3CN[C@H](C(=O)N(C)C)C3)[C@H](C)[C@H]12 [Example 5]	> 128 µg/mL	8 µg/mL (≈ 15.8 µM)	> 128 µg/mL	8 µg/mL (≈ 15.8 µM)	> 128 µg/mL
C[C@@H](NS(C)(=O)=O)[C@H]1C(=O)N2C(C(=O)O)=C(S[C@@H]3CN[C@H](CNS(N)(=O)=O)C3)[C@H](C)[C@H]12 [Example 7]	2 to 4 µg/mL (≈ 4.02 to 8.04 µM)	2 to 8 µg/mL (≈ 4.02 to 16.1 µM)	32 to 64 µg/mL (≈ 64.3 to 129 µM)	0.5 µg/mL (≈ 1 µM)	2 to 4 µg/mL (≈ 4.02 to 8.04 µM)
COc1ccc(S(=O)(=O)N[C@H](C)[C@H]2C(=O)N3C(C(=O)O)=C(S[C@@H]4CN[C@H](C(=O)N(C)C)C4)[C@H](C)C23)cc1OC (stereo partly shown) [Example 9]	> 128 µg/mL	8 µg/mL (≈ 13.7 µM)	> 128 µg/mL	128 µg/mL (≈ 220 µM)	> 128 µg/mL
CCS(=O)(=O)N[C@H](C)[C@H]1C(=O)N2C(C(=O)O)=C(S[C@@H]3CN[C@H](C(=O)N(C)C)C3)[C@H](C)[C@H]12 [Example 10]	4 µg/mL (≈ 8.43 µM)	16 µg/mL (≈ 33.7 µM)	> 128 µg/mL	1 µg/mL (≈ 2.11 µM)	2 µg/mL (≈ 4.21 µM)
C[C@@H](NS(=O)(=O)c1ccccc1)[C@H]1C(=O)N2C(C(=O)O)=C(S[C@@H]3CN[C@H](C(=O)N(C)C)C3)[C@H](C)[C@H]12 [Example 11]	32 µg/mL (≈ 61.2 µM)	8 µg/mL (≈ 15.3 µM)	> 128 µg/mL	4 µg/mL (≈ 7.65 µM)	64 µg/mL (≈ 122 µM)
C[C@@H](NS(=O)(=O)c1ccc(F)cc1)[C@H]1C(=O)N2C(C(=O)O)=C(S[C@@H]3CN[C@H](C(=O)N(C)C)C3)[C@H](C)[C@H]12 [Example 12]	32 µg/mL (≈ 59.2 µM)	8 µg/mL (≈ 14.8 µM)	> 128 µg/mL	4 µg/mL (≈ 7.4 µM)	128 µg/mL (≈ 237 µM)
C[C@@H](NS(=O)(=O)C(F)(F)F)[C@H]1C(=O)N2C(C(=O)O)=C(S[C@@H]3CN[C@H](C(=O)N(C)C)C3)[C@H](C)[C@H]12 [Example 13]	4 µg/mL (≈ 7.77 µM)	4 µg/mL (≈ 7.77 µM)	64 µg/mL (≈ 124 µM)	1 µg/mL (≈ 1.94 µM)	8 µg/mL (≈ 15.5 µM)
COC(=O)N[C@H](C)[C@H]1C(=O)N2C(C(=O)O)=C(S[C@@H]3CN[C@H](C(=O)N(C)C)C3)[C@H](C)[C@H]12 [Example 14]	4 µg/mL (≈ 9.08 µM)	4 µg/mL (≈ 9.08 µM)	128 µg/mL (≈ 291 µM)	0.5 µg/mL (≈ 1.14 µM)	4 µg/mL (≈ 9.08 µM)
CCOC(=O)N[C@H](C)[C@H]1C(=O)N2C(C(=O)O)=C(S[C@@H]3CN[C@H](C(=O)N(C)C)C3)[C@H](C)[C@H]12 [Example 15]	16 µg/mL (≈ 35.2 µM)	2 µg/mL (≈ 4.4 µM)	128 µg/mL (≈ 282 µM)	1 µg/mL (≈ 2.2 µM)	16 µg/mL (≈ 35.2 µM)
C[C@@H](NS(=O)(=O)Cc1ccccc1)[C@H]1C(=O)N2C(C(=O)O)=C(S[C@@H]3CN[C@H](C(=O)N(C)C)C3)[C@H](C)[C@H]12 [Example 16]	16 µg/mL (≈ 29.8 µM)	4 µg/mL (≈ 7.45 µM)	> 128 µg/mL	4 µg/mL (≈ 7.45 µM)	64 µg/mL (≈ 119 µM)
C[C@@H](NC(=O)C1(C(F)(F)F)CC1)[C@H]1C(=O)N2C(C(=O)O)=C(S[C@@H]3CN[C@H](C(=O)N(C)C)C3)[C@H](C)[C@H]12 [Example 17]	32 µg/mL (≈ 61.7 µM)	4 µg/mL (≈ 7.71 µM)	128 µg/mL (≈ 247 µM)	16 µg/mL (≈ 30.9 µM)	> 128 µg/mL
